Key:
SR (NPM-ALK) cells = assay: Growth inhibition IC50 in ALCL SR cells (CCK8/WST, 72 hours); assay type: cell-based; conditions: SR cells, WST
[1] = target: T1, ALK protein in H3122 (EML4-ALK) cells (Homo sapiens, UniProt Q9UM73); assay: Western blot of ALK protein level (degradation, DC50), ALK phosphorylation and downstream signaling in H3122 cells; assay type: cell-based; conditions: ALK protein degradation in H3122 cells
T1 construct: EML4 (Echinoderm microtubule-associated protein-like 4, Q9HC35) fusion partner, variant 1; host or cells: NCI-H3122 lung adenocarcinoma cells; the other entry of the earlier key: EML4 (Q9HC35, Echinoderm microtubule-associated protein-like 4)

[2] = 72 h, Brigatinib-based PROTAD molecules (Table 3)

T1 sequence (Q9UM73 with tags, fused parts or gaps): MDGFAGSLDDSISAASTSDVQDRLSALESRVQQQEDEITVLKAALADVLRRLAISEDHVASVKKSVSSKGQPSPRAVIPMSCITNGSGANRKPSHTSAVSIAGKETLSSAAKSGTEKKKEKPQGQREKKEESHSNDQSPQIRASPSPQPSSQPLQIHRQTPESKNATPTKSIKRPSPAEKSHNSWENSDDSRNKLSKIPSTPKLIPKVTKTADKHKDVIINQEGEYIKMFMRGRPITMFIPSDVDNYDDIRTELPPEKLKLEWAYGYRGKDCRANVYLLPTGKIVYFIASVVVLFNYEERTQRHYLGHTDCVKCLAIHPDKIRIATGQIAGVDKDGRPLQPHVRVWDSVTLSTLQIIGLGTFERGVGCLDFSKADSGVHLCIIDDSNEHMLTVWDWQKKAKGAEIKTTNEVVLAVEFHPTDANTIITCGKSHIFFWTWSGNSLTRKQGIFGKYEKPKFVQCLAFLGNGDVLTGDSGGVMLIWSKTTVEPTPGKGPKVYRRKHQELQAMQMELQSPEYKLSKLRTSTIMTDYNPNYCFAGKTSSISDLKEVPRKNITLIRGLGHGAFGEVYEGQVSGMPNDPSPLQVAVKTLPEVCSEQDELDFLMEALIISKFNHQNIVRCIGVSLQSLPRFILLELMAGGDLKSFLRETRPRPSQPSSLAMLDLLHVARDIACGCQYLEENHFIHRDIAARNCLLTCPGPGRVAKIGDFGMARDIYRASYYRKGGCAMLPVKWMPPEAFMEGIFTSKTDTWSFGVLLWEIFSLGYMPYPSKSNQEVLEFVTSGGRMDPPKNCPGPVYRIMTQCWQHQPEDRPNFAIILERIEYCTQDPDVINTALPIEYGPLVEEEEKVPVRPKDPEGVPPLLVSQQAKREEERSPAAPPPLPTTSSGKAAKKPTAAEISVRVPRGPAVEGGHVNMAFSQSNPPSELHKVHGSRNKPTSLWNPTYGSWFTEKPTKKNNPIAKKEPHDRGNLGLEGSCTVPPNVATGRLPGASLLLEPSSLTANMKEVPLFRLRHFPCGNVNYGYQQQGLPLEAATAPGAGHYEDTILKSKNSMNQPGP

Row | DC50 [1] [nM] | Compound | IC50 (SR (NPM-ALK) cells; Alectinib based ALK PROTAD compounds (Table 4)) [nM] | IC50 (SR (NPM-ALK) cells; [2]) [nM]
1 | 10 to 50 | CCc1cc2c(cc1N1CCN(C(=O)CCCc3cn(CCCC(=O)N[C@H](C(=O)N4C[C@H](O)C[C@H]4C(=O)NCc4ccc(-c5scnc5C)cc4)C(C)(C)C)nn3)CC1)C(C)(C)c1[nH]c3cc(C#N)ccc3c1C2=O [SIAIS164155, (2S,4R)-1-((S)-2-(4-(4-(4-(4-(3-cyano-9-ethyl-6,6-dimethyl-11-oxo-6,11-dihydro-5H-benzo[b]carbazol-8-yl)piperazin-1-yl)-4-oxobutyl)-1H-1,2,3-triazol-1-yl)butanamido)-3,3-dimethylbutanoyl)-4-hydroxy-N-(4-(4-methylthiazol-5-yl)benzyl)pyrrolidine-2-carboxamide] | 104 | –
2 | 1 to 50 | COc1cc(N2CCC(NC(=O)CCC(=O)NCCNc3cccc4c3C(=O)N(C3CCC(=O)NC3=O)C4=O)CC2)ccc1Nc1ncc(Cl)c(Nc2ccccc2P(C)(C)=O)n1 (centres unmarked) [SIAIS164157, N1-(1-(4-((5-chloro-4-((2-(dimethylphosphoryl)phenyl)amino)pyrimidin-2-yl)amino)-3-methoxyphenyl)piperidin-4-yl)-N4-(2-((2-(2,6-dioxopiperidin-3-yl)-1,3-dioxoisoindolin-4-yl)amino)ethyl)succinamide] | – | 15.7 ± 15
3 | 50 to 500 | COc1cc(N2CCN(C(=O)CCOCCOCCC(=O)N[C@H](C(=O)N3C[C@H](O)C[C@H]3C(=O)NCc3ccc(-c4scnc4C)cc3)C(C)(C)C)CC2)ccc1Nc1ncc(Cl)c(Nc2ccccc2P(C)(C)=O)n1 [SIAIS197079, (2S,4R)-1-((S)-2-(3-(2-(3-(4-(4-((5-chloro-4-((2-(dimethylphosphoryl)phenyl)amino)pyrimidin-2-yl)amino)-3-methoxyphenyl)piperazin-1-yl)-3-oxopropoxy)ethoxy)propanamido)-3,3-dimethylbutanoyl)-4-hydroxy-N-(4-(4-methylthiazol-5-yl)benzyl)pyrrolidine-2-carboxamide] | – | 15.9 ± 8.5
4 | 50 to 500 | COc1cc(N2CCN(C(=O)CCNc3cccc4c3C(=O)N(C3CCC(=O)NC3=O)C4=O)CC2)ccc1Nc1ncc(Cl)c(Nc2ccccc2P(C)(C)=O)n1 (centres unmarked) [SIAIS1197057, 4-((3-(4-(4-((5-chloro-4-((2-(dimethylphosphoryl)phenyl)amino)pyrimidin-2-yl)amino)-3-methoxyphenyl)piperazin-1-yl)-3-oxopropyl)amino)-2-(2,6-dioxopiperidin-3-yl)isoindoline-1,3-dione] | – | 17.7 ± 9.6
5 | 1 to 50 | COc1cc(N2CCN(C(=O)CCCNc3cccc4c3C(=O)N(C3CCC(=O)NC3=O)C4=O)CC2)ccc1Nc1ncc(Cl)c(Nc2ccccc2P(C)(C)=O)n1 (centres unmarked) [SIAIS1197059, 4-((4-(4-(4-((5-chloro-4-((2-(dimethylphosphoryl)phenyl)amino)pyrimidin-2-yl)amino)-3-methoxyphenyl)piperazin-1-yl)-4-oxobutyl)amino)-2-(2,6-dioxopiperidin-3-yl)isoindoline-1,3-dione] | – | 10.7 ± 6.2
6 | 50 to 500 | COc1cc(N2CCN(C(=O)CCCCNc3cccc4c3C(=O)N(C3CCC(=O)NC3=O)C4=O)CC2)ccc1Nc1ncc(Cl)c(Nc2ccccc2P(C)(C)=O)n1 (centres unmarked) [SIAIS1197061, 4-((5-(4-(4-((5-chloro-4-((2-(dimethylphosphoryl)phenyl)amino)pyrimidin-2-yl)amino)-3-methoxyphenyl)piperazin-1-yl)-5-oxopentyl)amino)-2-(2,6-dioxopiperidin-3-yl)isoindoline-1,3-dione] | – | 8 ± 4.4
7 | 50 to 500 | COc1cc(N2CCN(C(=O)CCCCCNc3cccc4c3C(=O)N(C3CCC(=O)NC3=O)C4=O)CC2)ccc1Nc1ncc(Cl)c(Nc2ccccc2P(C)(C)=O)n1 (centres unmarked) [SIAIS1197063, 4-((6-(4-(4-((5-chloro-4-((2-(dimethylphosphoryl)phenyl)amino)pyrimidin-2-yl)amino)-3-methoxyphenyl)piperazin-1-yl)-6-oxohexyl)amino)-2-(2,6-dioxopiperidin-3-yl)isoindoline-1,3-dione] | – | 14.1 ± 7.3
8 | 100 to 500 | COc1cc(N2CCN(C(=O)CCOCCNc3cccc4c3C(=O)N(C3CCC(=O)NC3=O)C4=O)CC2)ccc1Nc1ncc(Cl)c(Nc2ccccc2P(C)(C)=O)n1 (centres unmarked) [SIAIS1197065, 4-((2-(3-(4-(4-((5-chloro-4-((2-(dimethylphosphoryl)phenyl)amino)pyrimidin-2-yl)amino)-3-methoxyphenyl)piperazin-1-yl)-3-oxopropoxy)ethyl)amino)-2-(2,6-dioxopiperidin-3-yl)isoindoline-1,3-dione] | – | 20.7 ± 14.9
9 | 100 to 500 | COc1cc(N2CCN(C(=O)CCOCCOCCNc3cccc4c3C(=O)N(C3CCC(=O)NC3=O)C4=O)CC2)ccc1Nc1ncc(Cl)c(Nc2ccccc2P(C)(C)=O)n1 (centres unmarked) [SIAIS1197067, 4-((2-(2-(3-(4-(4-((5-chloro-4-((2-(dimethylphosphoryl)phenyl)amino)pyrimidin-2-yl)amino)-3-methoxyphenyl)piperazin-1-yl)-3-oxopropoxy)ethoxy)ethyl)amino)-2-(2,6-dioxopiperidin-3-yl)isoindoline-1,3-dione] | – | 16.1 ± 6.1
10 | 100 to 500 | COc1cc(N2CCN(C(=O)CCOCCOCCOCCNc3cccc4c3C(=O)N(C3CCC(=O)NC3=O)C4=O)CC2)ccc1Nc1ncc(C)c(Nc2ccccc2P(C)(C)=O)n1 (centres unmarked) [SIAIS1197069, 4-((2-(2-(2-(3-(4-(4-((4-((2-(dimethylphosphoryl)phenyl)amino)-5-methylpyrimidin-2-yl)amino)-3-methoxyphenyl)piperazin-1-yl)-3-oxopropoxy)ethoxy)ethoxy)ethyl)amino)-2-(2,6-dioxopiperidin-3-yl)isoindoline-1,3-dione] | – | 22.3 ± 18.2
11 | 100 to 500 | COc1cc(N2CCN(C(=O)CCOCCOCCOCCOCCOCCNc3cccc4c3C(=O)N(C3CCC(=O)NC3=O)C4=O)CC2)ccc1Nc1ncc(Cl)c(Nc2ccccc2P(C)(C)=O)n1 (centres unmarked) [SIAIS1197073, 4-((18-(4-(4-((5-chloro-4-((2-(dimethylphosphoryl)phenyl)amino)pyrimidin-2-yl)amino)-3-methoxyphenyl)piperazin-1-yl)-18-oxo-3,6,9,12,15-pentaoxaoctadecyl)amino)-2-(2,6-dioxopiperidin-3-yl)isoindoline-1,3-dione] | – | 34.2 ± 23.9
12 | 50 to 500 | COc1cc(N2CCN(C(=O)CCOCCOCCOCCC(=O)N[C@H](C(=O)N3C[C@H](O)C[C@H]3C(=O)NCc3ccc(-c4scnc4C)cc3)C(C)(C)C)CC2)ccc1Nc1ncc(Cl)c(Nc2ccccc2P(C)(C)=O)n1 [SIAIS1197081, (2S,4R)-1-((S)-2-(tert-butyl)-16-(4-(4-((5-chloro-4-((2-(dimethylphosphoryl)phenyl)amino)pyrimidin-2-yl)amino)-3-methoxyphenyl)piperazin-1-yl)-4,16-dioxo-7,10,13-trioxa-3-azahexadecanoyl)-4-hydroxy-N-(4-(4-methylthiazol-5-yl)benzyl)pyrrolidine-2-carboxamide] | – | 32.5 ± 19.8
13 | 50 to 500 | COc1cc(N2CCN(C(=O)CCOCCOCCOCCOCCC(=O)N[C@H](C(=O)N3C[C@H](O)C[C@H]3C(=O)NCc3ccc(-c4scnc4C)cc3)C(C)(C)C)CC2)ccc1Nc1ncc(Cl)c(Nc2ccccc2P(C)(C)=O)n1 [SIAIS1197083, (2S,4R)-1-((S)-2-(tert-butyl)-19-(4-(4-((5-chloro-4-((2-(dimethylphosphoryl)phenyl)amino)pyrimidin-2-yl)amino)-3-methoxyphenyl)piperazin-1-yl)-4,19-dioxo-7,10,13,16-tetraoxa-3-azanonadecanoyl)-4-hydroxy-N-(4-(4-methylthiazol-5-yl)benzyl)pyrrolidine-2-carboxamide] | – | 49.9 ± 30.8
14 | 20 to 100 | COc1cc(N2CCN(C(=O)CCOCCOCCOCCOCCOCCC(=O)N[C@H](C(=O)N3C[C@H](O)C[C@H]3C(=O)NCc3ccc(-c4scnc4C)cc3)C(C)(C)C)CC2)ccc1Nc1ncc(Cl)c(Nc2ccccc2P(C)(C)=O)n1 [SIAIS1197085, (2S,4R)-1-((S)-2-(tert-butyl)-22-(4-(4-((5-chloro-4-((2-(dimethylphosphoryl)phenyl)amino)pyrimidin-2-yl)amino)-3-methoxyphenyl)piperazin-1-yl)-4,22-dioxo-7,10,13,16,19-pentaoxa-3-azadocosanoyl)-4-hydroxy-N-(4-(4-methylthiazol-5-yl)benzyl)pyrrolidine-2-carboxamide] | – | 62.5 ± 39.2
15 | 50 to 500 | COc1cc(N2CCN(C(=O)COCCOCC(=O)N[C@H](C(=O)N3C[C@H](O)C[C@H]3C(=O)NCc3ccc(-c4scnc4C)cc3)C(C)(C)C)CC2)ccc1Nc1ncc(Cl)c(Nc2ccccc2P(C)(C)=O)n1 [SIAIS1197087, (2S,4R)-1-((S)-2-(2-(2-(2-(4-(4-((5-chloro-4-((2-(dimethylphosphoryl)phenyl)amino)pyrimidin-2-yl)amino)-3-methoxyphenyl)piperazin-1-yl)-2-oxoethoxy)ethoxy)acetamido)-3,3-dimethylbutanoyl)-4-hydroxy-N-(4-(4-methylthiazol-5-yl)benzyl)pyrrolidine-2-carboxamide] | – | 10.6 ± 2.4
16 | 1 to 50 | COc1cc(N2CCN(C(=O)CCC(=O)N[C@H](C(=O)N3C[C@H](O)C[C@H]3C(=O)NCc3ccc(-c4scnc4C)cc3)C(C)(C)C)CC2)ccc1Nc1ncc(Cl)c(Nc2ccccc2P(C)(C)=O)n1 [SIAIS1197145, (2S,4R)-1-((S)-2-(4-(4-(4-((5-chloro-4-((2-(dimethylphosphoryl)phenyl)amino)pyrimidin-2-yl)amino)-3-methoxyphenyl)piperazin-1-yl)-4-oxobutanamido)-3,3-dimethylbutanoyl)-4-hydroxy-N-(4-(4-methylthiazol-5-yl)benzyl)pyrrolidine-2-carboxamide] | – | 8.5 ± 5.6
